Data published in patent US20020049157A1, “Use of proteasome inhibitors for treating cancer, inflammation, autoimmune disease, graft rejection and septic shock” (priority 1998, published 2002).
Where two headings read alike, the source gives them in different places. Peptide text beside a SMILES is read from it. * marks the point of attachment. Cbz = O=C(OCc1ccccc1)*; CH2F = FC*

Legend:
[1] = system: BALB/c mouse spleen cells; test: Anti-CD3-stimulated T cell proliferation (3H-thymidine); type: cell-based; settings: anti-CD3 50 ng/ml; pulsed 48 h, harvested 64 h
Protocol: The cells were pulsed with ^3H-thymidine at 48 h and harvested at 64 h after the culture.

heart allograft = type: in vivo, mouse
Protocol: BALB/c mice (H-2^d) were used as heart donors and C57BL/6 mice (H-2^b) as recipients. […] Group 2 was given 0.65 mg/kg/day; group 3 was given 1.0 mg/kg/day for 4 days, and the dose was then reduced to 0.5 mg/kg/day for 12 days. The graft survival days, mean survival time (MST) and the p value (unpaired Student's test) compared with the control group was presented.
The applicant then used DPBA in treating allograft rejection in a mouse model. BALB/c (H-2^d) mice were used as donors and C57BL/6 (H-2^b) was used as recipients. Heterotropic heart transplantation was performed as described in our previous publication (Chen et al., 1996, supra). […] With this regimen, the MST is more than 22.8+9.8 days and has a tendency of being better than the first group.
Proteasome inhibitors when added at the late G1 phase can suppress proliferation and even induce apoptosis of the activated T cells. […] This possibility was tested in mouse heart transplantation model. The recipients were given no immunosuppressants for 72 h after the transplantation to allow the rejection response to proceed. […] This new drug will be especially useful in patients who are resistant to commonly used immunosuppressants such as CyA, azathioprine, and glucocorticoids.

islet allograft = test: Mouse islet allograft in streptozocin-induced diabetes; type: in vivo; settings: 1 mg/kg/day i.p. for 16 days, then 0.5 mg/kg twice a week until day 60
Protocol: C57BL/6 mice were treated with 250 mg/kg streptozocin and used as islet graft recipients when their blood glucose reached […] from BALB/c mice were isolated after collagenase digestion followed by Ficoll gradient separation. The islets were cultured overnight, and transplanted into the peritoneal cavity of the diabetic C57BL/6 recipients (500-600 islets/recipient). […] The blood glucose of the mice was measured daily and the means+SDs are shown. […] The mice were sacrificed on day 60, or when their blood glucose reached […].

[2] = system: Streptococcus cell wall-induced polyarthritis; settings: in vivo, cited from earlier work
proteasome = settings: for repression of chymotrypsin-like activity in the PBMC: RAPA at 10 nM
Protocol: Human PBMC were cultured in the absence or presence of 2 μg/ml PHA or 10 nM RAPA for 16 h-70 h as indicated. The cells were then harvested, and the chymotrypsin-like activity of whole cells lysates was assayed in the absence or presence of 20 μM proteasome inhibitor LAC. The data are presented as arbitrary units of fluorescence intensity per 20 μg lysate protein. The experiments were repeated three times and a representative one is shown. Samples are in duplicate and the mean±SD is shown. (A) Total chymotrypsin-like activity in the lysate of PBMC. (B) Lactacystin-inhibitable chymotrypsin-like activity in the lysate of 70 h PBMC. Nine micrograms of 20S proteasome were used as positive controls for the inhibitory effect of LAC at 10 μM and 20 μM. LAC was always added to the lysates during the proteinase assay 15 min before the addition of the substrate. The solid bars represent the activity in the presence of LAC. The net proteasome activities are calculated as the total activity minus the remaining activity after the LAC addition.
PBMC lysates were assayed for their proteinase activity at pH 8.2 which favors the proteasome activity, using a chymotrypsin substrate as a representative parameter.
PBMC were cultured with or without PHA (2 μg/ml) and RAPA (10 nM). After 16 h-70 h, the cells were harvested and sonicated in 300 μl PBS on ice for 40 sec. Twenty micrograms of protein per sample from the cleared lysates were supplemented to 100 μl with 0.1 M Tris buffer (pH 8.2). A proteasome-specific inhibitor lactacystin (Omura et al., 1991, supra; Fentenay et al., 1995, supra) was added at a final concentration of 10 nM in some samples as indicated. The samples were incubated on ice for 15 min, and fluorogenic chymotrypsin substrate sLLVY-MCA was then added at a final concentration of 10 nM. The 20S proteasome, which was prepared as previously described (Friguet et al, 1994, J. Biol. Chem. 269:21639), was used as a positive control in place of cell lysates. The samples were incubated at 37° C. for 15 min and the reaction was terminated by adding 4 μl 2.5 M HCl. The samples were then diluted to 2 ml with 0.1 M Tris pH8.2, and measured for their fluorescent intensity by a PTI fluorometer (Photo Technology International, South Brunswick, N.J.). The excitation wavelength was 380 nm, and the emission wavelength 440 mn.

Jurkat and Namalwa cells = test: Apoptosis induction in Jurkat and Namalwa cells; type: cell-based
Jurkat cells [3] = test: DNA fragmentation (DNA laddering) in Jurkat cells; type: cell-based; settings: LAC 6 μM; caspase inhibitor 0.4 μM to 33.3 μM; 6 h
Protocol: Tonsillar T cells (A, B, and D) and Jurkat cells (C and E) were treated with LAC (10 μM for T cells and 6 μM for Jurkat cells). LAC was added at the beginning of the culture or 40 h after T cell activation as indicated. The cells were harvested at the time points as shown. They were evaluated for their viability with trypan blue exclusion (A, B, and C), and for their mode of cell death according to DNA fragmentation (D and E).
Jurkat cells were treated with LAC (6 μM) in the absence or presence of different concentrations of zVAD.fms (0.4 μM to 33.3 μM) for 6 h. The cells were harvested and their DNA was analyzed by a DNA fragmentation assay according to DNA laddering.
We next employed DNA laddering to study the mode of cell death caused by LAC, and the result of this experiment also reflected the degree of cell death after different treatments. […] After 24 h of LAC treatment, the ladders became less discrete, and this probably reflected further DNA breakdown.
The assay was performed according to a protocol described by Liu et al (Liu et al., 1997, Cell. 89:175) with some modifications. Briefly, 2-6 million cells were re-suspended in 50 μl PBS followed by 300 μl lysis buffer (100 mM Tris-HCl, pH 8.0, 5 mM EDTA, 0.2 M NaCl. 0.2% w/v SDS, and 0.2 mg/ml proteinase K). After overnight incubation at 37° C., 350 μl of 3M NaCl was added to the mixture and cell debris was removed by centrifugation at 13000 g for 20 min at room temperature. DNA in the supernatant was precipitated with an equal volume of 100% ethanol. The pellet was washed with cold 70% ethanol and then dissolved in 20 μl of TE containing 0.2 mg/ml RNase A. After incubation at 37° C. for 2 h, the DNA was resolved on 2% agarose gel and visualized with ethidium bromide staining.

Jurkat cells [4] = test: Respiration (O2 consumption) of Jurkat cells, oxygen electrode; type: cell-based; settings: LAC for 4 h; 100 μM Cytochrome C
From the text: The function of Complex I of digitonin (Dig)-permeated Jurkat cells was blocked by rotenone (Rot), and the respiration was resumed by adding succinate (Suc), which provides electrons to Complex II directly and thus bypasses Complex I. The maximal respiration was achieved by adding CCCP (carbonyl cyanide m-chlorophenylhydrazone), which uncouples the oxidation and phosphorylation. The respiration could be blocked by antimycin A (Ant), which inhibits […]. Curves 1 and 6 represent positive controls of rat kidney mitochondria. Curves 2 and 5 represent normals untreated Jurkat cells. Curves 3 and 4 represent Jurkat cells treated with lactacystin (6 μM) for 2 h and 4 h, respectively.
Complex III in the respiration chain was blocked at Complex III antimycin (Ant), and the electron flow was resumed by addiind ascorbate (Asc) and TMPD (tetramethyl-p-phenyl-enediamine).
The assay system is identical to that described in FIG. 16. Jurkat cells were treated with LAC for 4 h (curve 3). The decoupling reagent used in this experiment to achieve maximal respiration is FCCP (carbonylcyanide-p-trifluoromethoxyphenylhydrazone).
The Jurkat Cells (JC) (30×10^6/ml) or rat kidney proximal tubules mitochondria (RKM) (0.5 mg of protein/ml) were incubated in 1 ml measuring chamber at 37° C. in a respiration buffer containing 200 mM sucrose, 5 mM MgCl2, 5 mM KH2PO4, and 30 mM HEPES-Tris (pH 7.5). During respiration experiments following substrates and inhibitors were used: 0.005% Digitonine (Dig); 10 mM Succinate (Suc); 1 mM Ascorbate (Asc); 0.4 mM tetramethyl-p- phenylenediamine (TMPD); 1 μM CCCP, 1 μM FCCP; 0.1 μM Rotenone (Rot); 50 nM Antimycin A (Anti); 1 mM KCN; 100 μM Cytochrome C (Cyt C). The respiration rate of the Jurkat Cells and mitochondria was measured polarographically with a Clarke oxygen electrode (Yellow Springs Instruments, Yellow Springs, Ohio, U.S.A.) using 1 ml thermojacketed chamber. Oxygen concentration was calibrated with air-saturated buffer using Hypoxanthine—Xanthine Oxidase—Catalase system (“chemical zero”). Oxygen consumption was continuously recorded using a “MacLab/8” (Analog Digital Instruments, U.S.A.) connected to a Macintosh SE computer and the MacLab Chart v.3.3.4 software. Rates of oxygen consumption are expressed as ng-atoms of oxygen/min.

CC(C)C[C@H](NC(=O)[C@H](Cc1ccccc1)NC(=O)c1cnccn1)B(O)O [DPBA, Pyz-Phe-boroLeu]
IC50 [1]: ~18 nM | MST (mean survival time of heart allograft) (heart allograft; 0.65 mg/kg/day i.p. for 16 days): more than 26.2+13 days | MST (mean survival time of heart allograft) (heart allograft; 1 mg/kg/day i.p. day 1-4, then 0.5 mg/kg/day i.p. day 5-16): more than 22.8+9.8 days | MST (ongoing rejection) (heart allograft; 1 mg/kg/day i.p. for 4 days starting on day 3): more than 13.2+1.78 days | appearance of the mice during or after the drug administration (heart allograft; mouse, in vivo, ip): appear healthy | graft survival (ongoing rejection) (heart allograft; short-term treatment between day 3 and 6): more than 13 days | duration of normal function of allogeneic islet graft (islet allograft): more than 60 days | glucose elevation consequent to islet rejection (islet allograft): inhibits the glucose elevation consequent to islet rejection | toxicity ([2]; rat): without apparent toxicity | inhibition of Streptococcus cell wall-induced polyarthritis ([2]; rats): effectively inhibit

CO[C@H]1C[C@@H]2CC[C@@H](C)[C@@](O)(O2)C(=O)C(=O)N2CCCC[C@H]2C(=O)O[C@H]([C@H](C)C[C@@H]2CC[C@@H](O)[C@H](OC)C2)CC(=O)[C@H](C)/C=C(\C)[C@@H](O)[C@@H](OC)C(=O)[C@H](C)C[C@H](C)/C=C/C=C/C=C/1C [RAPA, Rapamycin]
net proteasome activity (proteasome; PHA plus RAPA-treated cells, 70 h, total minus activity remaining after LAC): 113.2×10^3 units/20 μg protein | inhibition of the augmented proteasome activity in the PHA-treated PBMC (proteasome; RAPA 10 nM, 70 h): 44.7% | inhibition of the total proteasome activity in the PHA-treated PBMC (proteasome; RAPA 10 nM, 70 h): 33.6% | repression of chymotrypsin-like activity in the PBMC (proteasome; 40 h after PHA stimulation): 23.1% | repression of chymotrypsin-like activity in the PBMC (proteasome; 70 h after PHA stimulation): 41.1%

CN[C@@H]1C[C@H]2O[C@@](C)([C@@H]1OC)n1c3ccccc3c3c4c(c5c6ccccc6n2c5c31)C(=O)NC4 [staurosporine]
induction of apoptosis (Jurkat and Namalwa cells): could equally induce apoptosis

COC(=O)C[C@H](NC(=O)[C@H](C)NC(=O)[C@@H](NC(=O)OCc1ccccc1)C(C)C)C(=O)CF [zVAD.fms, zVAD.fmk] (Cbz-Val-Ala-Asp(OMe)-CH2F)
effect on LAC-induced DNA fragmentation (Jurkat cells [3]): inhibitory effect on DNA fragmentation that is concentration responsive

cytochrome c
respiration of LAC-treated cells after adding exogenous cytochrome c (Jurkat cells [4]): the respiration resumed to a rate similar to that of untreated Jurkat cells and mitochondria
